These results are taken from patent US12508258B2, “Quinoline derivative for treating rheumatoid arthritis” (CHIA TAI TIANQING PHARMACEUTICAL GROUP CO., LTD., priority 2020, dated 2025).

Series [1] deals with human rheumatoid arthritis synovial cells. Briefly: MTT assay for the inhibition of human rheumatoid arthritis synovial cells. Type of series: cell-based. The protocol: An MTT assay for the inhibition of human rheumatoid arthritis synovial cells using the dihydrochloride salt of the compound of formula I as the test drug: the trypsinized cell suspension was seeded in a 96-well plate at a volume of 100 μL per well, with 1×10^4 cells per well. The edges of the plate were wiped with sterile PBS. The plate was placed in a cell incubator and incubated at 37° C. with 5% CO2. After 24 h of incubation, the original culture solution in the wells was aspirated. Then 100 μL of culture solution with gradient concentration of drug was added to each well, and 6 concentrations were set, namely, 0 μM, 0.5 μM, 1 μM, 2 μM, 5 μM and 10 μM, respectively. The plate was placed in the incubator and incubated at 37° C. with 5% CO2. After 24 h and 48 h after dosing, 20 μL of MTS was added to each well. The plate was incubated at 37° C. for 1.5 h. The absorbance of each well at a wavelength of 540 nm was measured by a microplate reader, and the inhibition rate of cells in each group was calculated.
The calculation formula is as follows: cell inhibition rate/%=(1−[…])×100%
In general terms: Formazan colour is commonly taken as a measure of viable cells.

The subject of series [2] is rheumatoid arthritis CIA model rats. Briefly: Rheumatoid arthritis CIA model, joints photographing. Format: in vivo. Particulars: Wistar CIA rats; anlotinib 10 mg/kg, dexamethasone 0.1 mg/kg; FIGS. 6 and 7. Here is the method: (§1) 15 SPF healthy male rats from Wistar with the weight of 160-180 g and purchased from Shanghai Institute of Planned Parenthood Research, with Certificate No. 20180006022473 in an SPF feeding environment.
(§2) Modeling group: on day 1 of the experiment, the primary immunization was performed. The animals in the modeling group were anesthetized with isoflurane. Four points were taken to inject the modeling agent on both sides of the spinal cord skin at the base of the tail of the rats. A total of 0.2 mL of CII/CFA molding emulsion was injected intradermally. On day 8 of the experiment, the second immunization was performed, and the operations were the same as those on day 1 of the experiment. Blank control group: equal volume of normal saline was injected.
(§3) After grouping, oral gavage administration was started according to the grouping requirements, and the administration volume was 10 mL/kg. The administration was carried out once daily for 14 days (from day 1 to day 14). On day 15, the animals were dissected after collection of relevant experimental data.
One rat in each group was selected, and the hind limb ankle joints thereof were photographed on day 4, day 8, day 11 and day 15.

Series [3] can be described thus: Rheumatoid arthritis CIA model, weight monitoring. Type of series: in vivo. Particulars: Wistar CIA rats, oral gavage once daily 14 days, dexamethasone 0.1 mg/kg, FIG. 1; for weight of the rats, regain after treatment: anlotinib 10 mg/kg. Here is the method: as §1, §2, §3
During the experiment, the weight of the rats in each group was measured once daily from the day of grouping and administration (day 1) to day 15.

The next series deals with interleukin-1β (IL-1β). Briefly: CIA model rats, serum IL-1β by enzyme-linked immunosorbent assay. Type of series: in vivo. The conditions noted are these: SD CIA rats; day 28; 20 and 10 mg/kg. The protocol:
(§4) After adaptive feeding of 80 SPF male SD rats with the weight of 140±10 g for 5 days, 10 male SD rats were randomly selected as a normal control group, and the rest were subjected to collagen-induced arthritis model modeling. The specific methods are as follows.
(§5) A solution of the bovine type II collagen (CII) in acetic acid (containing 2.0 mg·mL^−1 bovine CII) and an equal volume of complete Freund's adjuvant (CFA) were completely mixed, and the mixture was fully emulsified. The emulsion was added dropwise to water without diffusing as the degree, and finally the emulsion containing 1.0 mg·mL^−1 bovine CII was prepared. 0.2 mL of the emulsion was taken and injected intradermally into the dorsal and the base of the tail at four points (two points on the dorsal and two points on the base of the tail) for the primary immunization (d0). After day 7 (d7) of primary immunization, the emulsion was injected again as described above to boost the immunization. Then the arthritis index (AI) was scored on day 14 (d14). […]
(§6) After day 28 of the experiment, the blood was collected from the abdominal aorta of the rats in each group, and the serum was separated. The tumor necrosis factor-α (TNF-α) and the interleukin-1β (IL-1β) were detected by enzyme-linked immunosorbent assay, and the specific method was carried out according to the specifications of the kit. […]

Series [4] concerns CIA rats. Briefly: CIA model rats, determination of the rat paw swelling degree. Format: in vivo. Particulars: SD CIA rats; right hind paw thickness; 20 and 10 mg/kg. The protocol:
as §4, §5
Determination of the rat paw swelling degree: before the primary immunization (d0), every 7 d (d7, d14) after the primary immunization and every 4 d after treatment, the thickness of the right hind paw of the rats was measured with a vernier caliper at the same position. […]

Series [5] relates to rat rheumatoid arthritis model. Nature of the series: Rat rheumatoid arthritis CIA model, overall drug efficacy. The conditions noted are these: Wistar CIA rats; anlotinib 10 mg/kg oral gavage once daily for 14 days. Type of series: in vivo. Here is the method: as §1
15 rats were randomly divided into two groups according to the weight, blank control group (n=3) and modeling group (n=12).
as §2
The animals in the modeling group were divided into 3 groups according to the joint swelling degree and the joint scores: group-2 (n=4, model group), group-3 (n=4, positive control group), and group-4 (n=4, test drug group).
After grouping, oral gavage administration was started according to the grouping requirements, and the administration volume was 10 mL/kg. The administration was carried out once daily for 14 days (from day 1 to day 14). […]

The test system of series [6] is rheumatoid arthritis CIA model rats. Nature of the series: Rheumatoid arthritis CIA model, hind limb joint size monitoring (vernier caliper). Format: in vivo. The conditions noted are these: Wistar CIA rats, anlotinib 10 mg/kg; for joint swelling degree (ankle width and thickness) compared to model group: dexamethasone 0.1 mg/kg, FIGS. 2 and 3; for width of the hind limb ankle joints vs. model group / thickness of the hind limb ankle joints vs. model group: dexamethasone 0.1 mg/kg oral gavage once daily; for width of the hind limb ankle joints vs. model group: FIG. 2; for thickness of the hind limb ankle joints vs. model group: FIG. 3. Here is the method: as §1, §2, §3
During the experiment, the width and thickness of the hind limb ankle joints of the rats in each group were measured with a vernier caliper on day 1, day 4, day 8, day 11 and day 15.

Series [7] has as its system tumor necrosis factor-α (TNF-α). Briefly: CIA model rats, serum TNF-α by enzyme-linked immunosorbent assay. Type of series: in vivo. The conditions noted are these: SD CIA rats; day 28; 20 and 10 mg/kg. The protocol:
as §4, §5, §6

The subject of series [8] is rheumatoid arthritis CIA model rats. Nature of the series: Rheumatoid arthritis CIA model, hind limb joint lesion scoring. Particulars: Wistar CIA rats, anlotinib 10 mg/kg, dexamethasone 0.1 mg/kg oral gavage once daily, FIG. 4. Format: in vivo. Here is the method: as §1, §2
After modeling was completed, the animals were normally observed and housed. After the hind limb joints of the animals were diseased, the animals were grouped according to the joint swelling degree and the joint score, wherein the scoring criteria were as follows: • clinical diagnostic scoring criteria for joint soft tissue swelling and joint mobility:
as §3
During the experiment, hind limb ankle joints of the rats in each group were scored for joint soft tissue swelling and joint mobility on day 1, day 4, day 8, day 11 and day 15.

The test system is the same in series [9]. Briefly: Rheumatoid arthritis CIA model, hind limb joint weight determination. Particulars: day 8; Wistar CIA rats; anlotinib 10 mg/kg, dexamethasone 0.1 mg/kg oral gavage once daily; FIG. 5. Format: in vivo. Here is the method:
as §1, §2, §3
On day 8, two rats in each group were dissected, and the weight of the hind limb joints was measured. The remaining animals were subjected to normal experiments according to the grouping schedule. On day 15, the remaining animals in each group were dissected, and the weight of the hind limb joints was measured.

The subject of series [10] is CIA rats. Nature of the series: CIA model rats, ankle joint histopathology (HE staining, lesion observation and scoring). Type of series: in vivo. Particulars: SD CIA rats; for joint lesions (histopathology) compared to model group: intragastric, once daily five days on/two days off, two weeks, formula I dihydrochloride 20 and 10 mg/kg, dexamethasone sodium phosphate 0.05 mg/kg. Here is the method: as §4
A solution of the bovine type II collagen (CII) in acetic acid (containing 2.0 mg·mL^−1 bovine CII) and an equal volume of complete Freund's adjuvant (CFA) were completely mixed, and the mixture was fully emulsified. The emulsion was added dropwise to water without diffusing as the degree, and finally the emulsion containing 1.0 mg·mL^−1 bovine CII was prepared. 0.2 mL of the emulsion was taken and injected intradermally into the dorsal and the base of the tail at four points (two points on the dorsal and two points on the base of the tail) for the primary immunization (d0). After day 7 (d7) of primary immunization, the emulsion was injected again as described above to boost the immunization. Then the arthritis index (AI) was scored on day 14 (d14). The highest score of each rat was 16 points, and the arthritis induction was considered successful if there was at least 1 paw with AI score≥2.
The CIA rats successfully modeled were randomly divided into a drug medium-dose group, a drug low-dose group and a model group, with 10 rats in each group. The normal group and the model group were subjected to intragastric administration with 0.02 mL·g^−1 normal saline; the drug medium-dose group and the drug low-dose group were administered with the dihydrochloride salt of the compound of formula I at 20 mg/kg and 10 mg/kg, respectively, (the vehicle was normal saline). The positive drug group was subjected to intragastric administration with dexamethasone sodium phosphate with the dose of 0.05 mg/kg. The rats was administered once daily from Monday to Friday (i.e., consecutively five-day administration and then two-day interruption). The dosing period was two weeks.
After the animal blood collection was finished, ankle joints were fixed in 10% formalin. The ankle joints were subjected to decalcification by 10% acetic acid and then were subjected to routine paraffin embedding, slicing and HE staining. The slices were observed by pathology professionals, and then the damage degree of joint synovial tissue, joint bones and cartilage tissue was observed and scored for comparison.
Observation of lesions and scoring: 1. whether the joint synovial cells are proliferated or eroded (denatured, necrotic), and whether the inflammatory cells infiltrate or not; 2. whether the pannus is formed (composed of blood vessels and fibroblasts); 3. whether the bony erosion (joint bone and cartilage) or hyperplasia exists; 5. whether the joint cavity has stenosis, disappearance and other lesions. The observation indexes were classified into 3 grades according to the severity of the lesions, which were respectively recorded as: 1 point for slight, 2 points for moderate, and 3 points for severe. 0 points means substantially normal. All scores were accumulated to obtain a total score, and the average score (mean±SD) of each animal in each group was calculated, and the higher the score, the more severe the lesion.

Counter-ions that a name gives are not always drawn.

Take `COc1cc2c(Oc3ccc4[nH]c(C)cc4c3F)ccnc2cc1OCC1(N)CC1` [Anlotinib hydrochloride, 1-[[[4-(4-fluoro-2-methyl-1H-indol-5-yl)oxy-6-methoxyquinolin-7-yl]oxy]methyl]cyclopropylamine]: the “inhibition of proliferation of human rheumatoid arthritis synovial cells” value in [1] (0.5, 1, 2, 5 and 10 μM compared with drug-free group at 0 μM, 24 h and 48 h after dosing) was “significantly inhibit the proliferation of human rheumatoid arthritis synovial cells”. Also, in series [1] (0.5-10 μM), the “concentration dependence of the inhibitory effect on synovial cell proliferation” value is listed as “enhanced along with the increase of the concentration of the drug”. In series [2], the “joint swelling degree on photographs compared to model group” value was “improved to a certain extent”. For the same compound, the “weight of the rats, regain after treatment” value in series [3] is listed as “began to regain from day 7”. Moreover, in the series on interleukin-1β (IL-1β), the “content of IL-1β in the serum of rats compared with model group” value is “could reduce”. In addition, in the series with CIA rats [4], the “paw swelling degree compared with model group” value is “significantly reduced”. Besides, in [5], the “drug efficacy on the rat rheumatoid arthritis model (conclusion)” value was “significant drug efficacy”. Besides, the “joint swelling degree (ankle width and thickness) compared to model group” value in series [6] is reported as “improved to a certain extent”. Also, the “width of the hind limb ankle joints vs. model group” value in [6] (day 4), in series [6] (day 8) and in [6] (day 15) was “lower than that of the model group” throughout. The “thickness of the hind limb ankle joints vs. model group” value in series [6] (day 4) and in [6] (day 8) was “lower than that of the model group” each time. In addition, the “content of TNF-α in the serum of rats compared with model group” value in series [7] is “could reduce”. The “lesion scores of the hind limb ankle joints vs. model group” value in series [8] (day 4), in [8] (day 8), in series [8] (day 11) and in series [8] (day 15) was “lower than those of the model group” each time. Further, the “weight of the hind limb joints vs. model group” value in series [9] is listed as “lower than that of the model group”. For the same compound, in the series with CIA rats [10] (20 mg/kg and 10 mg/kg), the “dose dependence of joint improvement (histopathology)” value was “improved in a dose-dependent manner”. Besides, the “joint cavity stenosis compared with model group” value in the series on CIA rats [10] (20 and 10 mg/kg) is listed as “significantly improved”. For the same compound, the “joint inflammatory infiltration compared with model group” value in the series with CIA rats [10] (20 and 10 mg/kg) is recorded as “significantly reduced”. Further, the “synovium hyperplasia compared with model group” value in the series on CIA rats [10] (20 and 10 mg/kg) is recorded as “significantly relieved”. Further, the “joint lesions (histopathology) compared to model group” value with CIA rats [10] is listed as “improved in different degrees”.
As for `C[C@@H]1C[C@H]2[C@@H]3CCC4=CC(=O)C=C[C@]4(C)[C@@]3(F)[C@@H](O)C[C@]2(C)[C@@]1(O)C(=O)COP(=O)(O)O` [dexamethasone sodium phosphate, reference compound], the “joint swelling degree on photographs compared to model group” value in [2] is recorded as “improved to a certain extent”. Also, the “weight of the rats, regain after treatment” value in series [3] is “began to regain from day 7”. Further, the “weight of the rats, early stage (side effect)” value in series [3] is on record as “significant weight loss at the early stage”. For the same compound, in [6], the “joint swelling degree (ankle width and thickness) compared to model group” value was “improved to a certain extent”. Also, the “thickness of the hind limb ankle joints vs. model group” value in [6] (day 8) is given as “lower than that of the model group”. Moreover, in [6] (day 15), the “width of the hind limb ankle joints vs. model group” value was “lower than that of the model group”. Also, the “lesion scores of the hind limb ankle joints vs. model group” value in series [8] (day 8), in series [8] (day 11) and in series [8] (day 15) was “lower than those of the model group” each time. The “weight of the hind limb joints vs. model group” value in series [9] is reported as “lower than that of the model group”. Moreover, the “joint lesions (histopathology) compared to model group” value with CIA rats [10] was “significantly reduced”.
